This test deals with P388 leukemia ip, CD2F1 mice, survival T/C. Description: NCI In Vivo Anticancer Drug Screen. Data for tumor model P388 Leukemia (intraperitoneal) in CD2F1 (CDF1) mice. To be noted: endpoint: median survival time, higher = longer survival. Summed up: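 Mice carrying the transplanted tumor received test compound or vehicle. Survival was recorded in each group, and the value is the treated-group measurement divided by that of the vehicle-treated control group.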

Where [1] appears, read: dose: 25.0 mg/kg/injection, schedule: Q01DX009 (ip), vehicle: saline with Tween-80.
[2] abbreviates: dose: 50.0 mg/kg/injection, schedule: Q01DX005 (ip), vehicle: Klucel (hydroxypropylcellulose) (HPC).
The mark [3] stands for this setting: dose: 50.0 mg/kg/injection, schedule: Q01DX009 (ip), vehicle: Klucel (hydroxypropylcellulose) (HPC).
[4] abbreviates: dose: 50.0 mg/kg/injection, schedule: Q01DX009 (ip), vehicle: saline with Tween-80.
The mark [5] stands for this setting: dose: 100.0 mg/kg/injection, schedule: Q01DX005 (ip), vehicle: Klucel (hydroxypropylcellulose) (HPC).
Where [6] appears, read: dose: 100.0 mg/kg/injection, schedule: Q01DX009 (ip), vehicle: Klucel (hydroxypropylcellulose) (HPC).
[7] abbreviates: dose: 100.0 mg/kg/injection, schedule: Q01DX009 (ip), vehicle: saline with Tween-80.
[8] abbreviates: dose: 200.0 mg/kg/injection, schedule: Q01DX009 (ip), vehicle: saline with Tween-80.
The mark [9] stands for this setting: dose: 50.0 mg/kg/injection, schedule: Q01DX005 (ip), vehicle: saline.
The mark [10] stands for this setting: dose: 100.0 mg/kg/injection, schedule: Q01DX005 (ip), vehicle: saline.
[11] abbreviates: dose: 100.0 mg/kg/injection, schedule: Q04DX003 (ip), vehicle: Klucel (hydroxypropylcellulose) (HPC).
Setting [12] is: dose: 200.0 mg/kg/injection, schedule: Q04DX003 (ip), vehicle: Klucel (hydroxypropylcellulose) (HPC).
Setting [13] is: dose: 400.0 mg/kg/injection, schedule: Q04DX003 (ip), vehicle: Klucel (hydroxypropylcellulose) (HPC).
Where [14] appears, read: dose: 50.0 mg/kg/injection, schedule: Q01DX009 (ip), vehicle: saline.
Setting [15] is: dose: 60.0 mg/kg/injection, schedule: Q01DX005 (ip), vehicle: Klucel (hydroxypropylcellulose) (HPC).
Where [16] appears, read: dose: 120.0 mg/kg/injection, schedule: Q01DX005 (ip), vehicle: Klucel (hydroxypropylcellulose) (HPC).
Setting [17] is: dose: 240.0 mg/kg/injection, schedule: Q01DX005 (ip), vehicle: Klucel (hydroxypropylcellulose) (HPC).
Setting [18] is: dose: 50.0 mg/kg/injection, schedule: Q01DX005 (ip), vehicle: saline with Tween-80.
The mark [19] stands for this setting: dose: 100.0 mg/kg/injection, schedule: Q01DX005 (ip), vehicle: saline with Tween-80.
[20] abbreviates: dose: 200.0 mg/kg/injection, schedule: Q01DX005 (ip), vehicle: saline with Tween-80.

Toxic doses and inconclusive results are not listed.

Regarding `Cc1cc(NCCCN(C)C)c2ccc3c(ccc4c(NCCCN(C)C)cc(C)nc43)c2n1`, the T/C was 98 % of control (dose: 12.5 mg/kg/injection, schedule: Q01DX009 (ip), vehicle: saline with Tween-80) and 118 % of control under setting [1].
Take `CCN(CC)Cc1c2c(O)c3c(O)c(C)c4c(c3c1O)C(=O)C(C)(O/C=C/C(OC)C(C)C(OC(C)=O)C(C)C(O)C(C)C(O)C(C)/C=C/C=C(\C)C(=O)N2)O4` (stereo not drawn): the T/C (dose: 12.5 mg/kg/injection, schedule: Q01DX009 (ip), vehicle: Klucel (hydroxypropylcellulose) (HPC)) was 115 % of control; the T/C (dose: 25.0 mg/kg/injection, schedule: Q01DX009 (ip), vehicle: Klucel (hydroxypropylcellulose) (HPC)) is 93 % of control; the T/C under setting [2] is 103 % of control; the T/C under setting [3] was 91 % of control; the T/C under setting [4] is 110 % of control; the T/C under setting [5] is 106 % of control. For the same compound, the T/C is 86 % of control under setting [6]; 90 % of control under setting [7]; 94 % of control (dose: 200.0 mg/kg/injection, schedule: Q01DX005 (ip), vehicle: Klucel (hydroxypropylcellulose) (HPC)); 97 % of control under setting [8]; 111 % of control (dose: 400.0 mg/kg/injection, schedule: Q01DX009 (ip), vehicle: Klucel (hydroxypropylcellulose) (HPC)).
For the compound `CC1(CC(=O)O)OC(c2ccccc2)=CC1=O` (stereo not drawn), the T/C is 98 % of control (dose: 100.0 mg/kg/injection, schedule: Q01DX001 (ip), vehicle: Klucel (hydroxypropylcellulose) (HPC)); 92 % of control (dose: 200.0 mg/kg/injection, schedule: Q01DX001 (ip), vehicle: Klucel (hydroxypropylcellulose) (HPC)); 92 % of control (dose: 400.0 mg/kg/injection, schedule: Q01DX001 (ip), vehicle: Klucel (hydroxypropylcellulose) (HPC)).
Turning to `[Cl][Cu][Cl].[NH-]C1CCCC2CCC[N-]C12` (stereo not drawn), the T/C (dose: 12.5 mg/kg/injection, schedule: Q04DX002 (ip), vehicle: saline with Tween-80) was 106 % of control.
Turning to `S=C(SCc1ccccc1)N1CCN(C(=S)SCc2ccccc2)CC1`, the T/C was 89 % of control under setting [4], 91 % of control under setting [7] and 91 % of control under setting [8].
Take `CC(C)C(=O)NCCCCCCN1CCCCC1`: the T/C runs as follows: under setting [9], 96 % of control; under setting [10], 100 % of control.
As for `O=C(O)c1cc2oc(-c3ccccc3)cc2[nH]1`, the T/C (dose: 60.0 mg/kg/injection, schedule: Q01DX005 (ip), vehicle: saline with Tween-80) was 94 % of control and the T/C (dose: 120.0 mg/kg/injection, schedule: Q01DX005 (ip), vehicle: saline with Tween-80) is 92 % of control.
For `O=C1CSC(=S)N1c1cc(Cl)c(Cl)cc1Cl`, the T/C runs as follows: (dose: 50.0 mg/kg/injection, schedule: Q01DX009 (ip), vehicle: suspension in saline) 102 % of control; (dose: 100.0 mg/kg/injection, schedule: Q01DX009 (ip), vehicle: suspension in saline) 100 % of control; (dose: 200.0 mg/kg/injection, schedule: Q01DX009 (ip), vehicle: suspension in saline) 93 % of control.
Take `O=C1c2cc(Cl)ccc2OC2CCON12` (stereo not drawn): the T/C runs as follows: under setting [3], 108 % of control; under setting [6], 110 % of control; (dose: 200.0 mg/kg/injection, schedule: Q01DX009 (ip), vehicle: Klucel (hydroxypropylcellulose) (HPC)) 116 % of control.
On to `ClC1c2ccccc2-c2nsnc2C1Cl` (stereo not drawn), for which the T/C is, setting by setting: under setting [1], 107 % of control; under setting [4], 90 % of control; under setting [7], 90 % of control; under setting [8], 100 % of control.
Consider `CC(C)=CC(=O)CC(O)(C(F)(F)F)C(F)(F)Cl` (stereo not drawn), for which the T/C under setting [1] was 109 % of control.
As to `CCOC(=O)C(=CC(CC)(C(=O)OCC)C(=O)OCC)C(=O)OCC`, the T/C was 110 % of control (dose: 100.0 mg/kg/injection, schedule: Q04DX003 (ip), vehicle: saline with Tween-80); 110 % of control (dose: 200.0 mg/kg/injection, schedule: Q04DX003 (ip), vehicle: saline with Tween-80); 109 % of control (dose: 300.0 mg/kg/injection, schedule: Q04DX003 (ip), vehicle: saline); 100 % of control (dose: 450.0 mg/kg/injection, schedule: Q04DX003 (ip), vehicle: saline); 109 % of control (dose: 600.0 mg/kg/injection, schedule: Q04DX003 (ip), vehicle: saline).
Regarding `[N-]=[N+]=CC(=O)c1ccc(Cl)cc1`, the T/C is, setting by setting: under setting [11], 108 % of control; under setting [12], 115 % of control; under setting [13], 107 % of control.
Turning to `ClCC1CCNCC1`, the T/C by setting is: under setting [14], 100 % of control; (dose: 100.0 mg/kg/injection, schedule: Q01DX009 (ip), vehicle: saline) 100 % of control; (dose: 200.0 mg/kg/injection, schedule: Q01DX009 (ip), vehicle: saline) 99 % of control.
Regarding `CCN([NH-])C(=S)[S-].CCN([NH-])C(=S)[S-].[Ni]`, the T/C is, setting by setting: (dose: 6.25 mg/kg/injection, schedule: Q04DX003 (ip), vehicle: Klucel (hydroxypropylcellulose) (HPC)) 99 % of control; (dose: 12.5 mg/kg/injection, schedule: Q04DX003 (ip), vehicle: Klucel (hydroxypropylcellulose) (HPC)) 107 % of control; (dose: 25.0 mg/kg/injection, schedule: Q04DX003 (ip), vehicle: Klucel (hydroxypropylcellulose) (HPC)) 103 % of control.
For `CSC(=O)NC(=O)NC(=O)c1ccc([N+](=O)[O-])cc1`, the T/C by setting is: under setting [2], 91 % of control; under setting [5], 91 % of control.
As for `CNC1NC(=O)c2ccccc2N1Cc1ccc(F)cc1` (stereo not drawn), the T/C reads like this: under setting [15], 94 % of control; under setting [16], 92 % of control; under setting [17], 94 % of control.
Take `COc1cccc(N2CC3CC4C=CC3(C2)O4)c1` (stereo not drawn): the T/C runs as follows: under setting [15], 98 % of control; under setting [16], 100 % of control; under setting [17], 97 % of control.
For the compound `O=C(O)CCC/C=N/O`, the T/C under setting [11] was 98 % of control, the T/C under setting [12] is 99 % of control and the T/C under setting [13] was 102 % of control.
As for `FC(F)(F)C(F)(F)c1nc2nc(Cl)c(Cl)nc2[nH]1`, the T/C was 100 % of control (dose: 50.0 mg/kg/injection, schedule: Q04DX003 (ip), vehicle: other); 118 % of control (dose: 100.0 mg/kg/injection, schedule: Q04DX003 (ip), vehicle: other); 113 % of control (dose: 200.0 mg/kg/injection, schedule: Q04DX003 (ip), vehicle: other).
Turning to `CC(C)c1cc(N(C)C)cc(=S)[nH]1`, the T/C under setting [9] was 104 % of control; the T/C under setting [10] is 94 % of control; the T/C (dose: 200.0 mg/kg/injection, schedule: Q01DX005 (ip), vehicle: saline) was 102 % of control.
With `CCN=Cc1c(O)c(O)c(C(C)C)c2cc(C)c(-c3c(C)cc4c(C(C)C)c(O)c(O)c(C=NCC)c4c3O)c(O)c12`, the T/C is 86 % of control under setting [18], 86 % of control under setting [19] and 104 % of control under setting [20].
For `CCN1/C(=C/C=C/C=C/c2oc3ccccc3[n+]2CC)Oc2ccccc21`, the T/C (dose: 0.78 mg/kg/injection, schedule: Q01DX009 (ip), vehicle: saline) is 104 % of control; the T/C (dose: 1.56 mg/kg/injection, schedule: Q01DX009 (ip), vehicle: saline) is 104 % of control; the T/C (dose: 3.12 mg/kg/injection, schedule: Q01DX009 (ip), vehicle: saline) is 110 % of control.
With `O=NNc1ccc(-c2ccccc2)cn1`, the T/C reads like this: (dose: 6.25 mg/kg/injection, schedule: Q01DX009 (ip), vehicle: saline) 101 % of control; (dose: 25.0 mg/kg/injection, schedule: Q01DX009 (ip), vehicle: saline) 181 % of control; under setting [14], 108 % of control.
As to `CC(/C=C/c1ccc(C)cc1)=N\NC(N)=O`, the T/C under setting [18] is 103 % of control, the T/C under setting [19] was 102 % of control and the T/C under setting [20] is 93 % of control.

The record behind these values is PubChem BioAssay AID330 (DTP/NCI, 2004).
